Earlier results on 29 molecules are cited in patent US20240358731A1, “SUMO PATHWAY AS AN OXYGEN SENSOR RELEVANT TO THE PATHOPHYSIOLOGY OF PULMONARY ARTERY HYPERTENSION AND CARDIAC ARRHYTHMIA” (Northeastern University, priority 2023, published 2024).

Non-standard residues stand in square brackets, D forms with d. Residues, ends and D or L forms follow the SMILES beside them. ξ: configuration not given here. *: point of attachment. X2 = O=C(CN*)COC(=O)c1c2ccccc2cc2ccccc12; X1 = O=C(Cc1ccc(O)c([N+](=O)[O-])c1)*; Thr(3ξ) = CC(O)[C@H](N)C(=O)O

Conditions in all cases: cited from earlier work
One series has as its system SENP.
The next series has as its system SUMOylation.
The target of series [1] is T1, SUMO activating enzyme (SAE) (Homo sapiens, UniProt Q9UBE0+Q9UBT2).
T1 sequence (Q9UBE0 1-346): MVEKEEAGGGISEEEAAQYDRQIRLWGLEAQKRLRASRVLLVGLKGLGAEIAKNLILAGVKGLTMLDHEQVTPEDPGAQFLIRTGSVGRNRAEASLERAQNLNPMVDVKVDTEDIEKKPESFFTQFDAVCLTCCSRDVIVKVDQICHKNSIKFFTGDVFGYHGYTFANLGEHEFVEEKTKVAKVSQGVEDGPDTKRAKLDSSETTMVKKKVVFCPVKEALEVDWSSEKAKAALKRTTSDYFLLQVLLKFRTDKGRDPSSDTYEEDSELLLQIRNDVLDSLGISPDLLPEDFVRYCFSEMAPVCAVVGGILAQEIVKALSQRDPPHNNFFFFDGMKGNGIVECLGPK
T1 sequence (Q9UBT2 1-640): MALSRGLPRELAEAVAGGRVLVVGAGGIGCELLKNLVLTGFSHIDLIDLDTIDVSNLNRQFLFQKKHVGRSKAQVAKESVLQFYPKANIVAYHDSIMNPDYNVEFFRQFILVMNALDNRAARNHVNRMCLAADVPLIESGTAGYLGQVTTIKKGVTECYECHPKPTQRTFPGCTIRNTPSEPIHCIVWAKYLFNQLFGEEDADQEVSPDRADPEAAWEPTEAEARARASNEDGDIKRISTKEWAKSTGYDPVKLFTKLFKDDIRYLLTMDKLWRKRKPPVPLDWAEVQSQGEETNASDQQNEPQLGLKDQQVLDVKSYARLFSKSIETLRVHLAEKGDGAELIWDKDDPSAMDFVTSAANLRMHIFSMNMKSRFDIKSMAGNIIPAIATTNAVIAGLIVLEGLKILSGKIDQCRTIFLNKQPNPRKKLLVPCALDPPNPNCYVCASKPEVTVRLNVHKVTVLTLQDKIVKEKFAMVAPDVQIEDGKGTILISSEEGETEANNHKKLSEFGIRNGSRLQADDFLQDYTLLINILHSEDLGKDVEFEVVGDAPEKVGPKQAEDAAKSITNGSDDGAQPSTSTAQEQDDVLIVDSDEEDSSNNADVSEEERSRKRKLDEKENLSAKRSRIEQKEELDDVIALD

Consider `CCOc1ccc(-c2nonc2NC(=O)COc2ccc(Cl)c(C)c2)cc1C` [Compound 46], for which the SENP inhibition result in the series on SENP is “potent and selective SENP inhibition”.
For the molecule `CNC(=O)c1cc(CNC(=O)c2ccc3c(c2)c(COc2ccc4[nH]ccc4c2)cn3S(C)(=O)=O)cc(=O)[nH]1` [Compound 54], in the series with SENP, the SENP inhibition result is “potent and selective SENP inhibition”.
In the case of `Cc1cc(OCC(=O)Nc2nonc2NC(=O)COc2ccc(Cl)c(C)c2)ccc1Cl` [Compound 47], the SENP inhibition result in the series with SENP is “potent and selective SENP inhibition”.
As for `COc1ccc(NC(=O)Nc2ccc(Oc3ncnc4cc(Cl)ccc34)nc2)cc1OC1CCCC1` [Compound 10], the SUMOylation inhibition entry in the series on SUMOylation was “potent in vitro SUMOylation inhibitor”. For the same molecule, the “formation of the E1-SUMO complex” value in series [1] is “prevents formation of the E1-SUMO complex”.
With `Cc1cc(-c2ccc(/N=N/c3c(N)c(S(=O)(=O)O)cc4cc(S(=O)(=O)O)ccc34)c(C)c2)ccc1/N=N/c1c(N)ccc2ccc(S(=O)(=O)O)cc12` [SPI-02], the “inhibition of SUMO2 maturation” value in the series with SENP is “more active at inhibiting SUMO2 maturation”.
With `CCCCn1c(NS(=O)(=O)c2ccccc2)c(S(=O)(=O)c2ccc(C)cc2)c2nc3ccccc3nc21` [Compound 15], in series [1], the “SAE / SUMO E1 inhibition” value was “most potent”.
Consider `CC1CC2=C(O1)c1cccc(O)c1C(=O)C2=O` (stereo not shown) [nocardione A], for which the SUMOylation inhibition result in the series with SUMOylation is “potent SUMOylation inhibitors”.
Regarding `NS(=O)(=O)OC[C@H]1C[C@@H](Nc2ncncc2C(=O)c2ccn(Cc3cccc(Br)c3)n2)C[C@@H]1O` [ML-792], the “SAE / SUMO E1 inhibition” value in series [1] is “selective SAE inhibitor”.
As to `CC1(C)CCC2=C(O1)c1ccccc1C(=O)C2=O` [β-lapachone], in the series on SUMOylation, the SUMOylation inhibition result was “potent SUMOylation inhibitors”.
For `O=C1C(O)=C(c2ccc(O)cc2)C(=O)C(O)=C1c1ccc(O)cc1` [NSC76919], the SENP inhibition result with SENP is reported as “exhibited inhibitory activity”.
Regarding `Cc1cc2c(o1)-c1ccccc1C(=O)C2=O` [33-DINOR-dehydrodunnione], the SUMOylation inhibition entry in the series on SUMOylation is “potent SUMOylation inhibitors”.
In the case of `COC(=O)C1=C(C(=O)OC)C2([C@@H](Cc3ccc(C)cc3)Nc3ccccc3)C=CC1O2` (stereo partly shown) [COH000], the SUMOylation inhibition result with SUMOylation is listed as “more potent SUMOylation inhibitor”.
As for `CS(=O)(=O)n1cc(COc2ccc3[nH]ccc3c2)c2cc(C(=O)OCc3cc(C#N)[nH]c(=O)c3)ccc21` [Compound 53], in the series on SENP, the SENP inhibition entry is “potent and selective SENP inhibition”.
As to `CC(O)[C@H](NC(=O)[C@H](CCC(N)=O)NC(=O)Cc1ccc(O)c([N+](=O)[O-])c1)C(=O)NCC(=O)NCC(=O)COC(=O)c1c2ccccc2cc2ccccc12` (stereo partly shown) [VAE-499], the SENP inhibition result with SENP is “more potent and selective SENP inhibitors”.
`O=C(COC(=O)c1ccc(NC(=O)c2cccc(OCc3ccccc3)c2)cc1)c1ccc(Cl)cc1` [Compound 43]: the SENP inhibition entry in the series with SENP was “modest improvement in activity”.
For the molecule `COc1ccc(-c2cccc(C(=O)NCc3cccc(NC(=O)CCc4ccccc4)c3)c2)cc1` [Compound 51], in the series on SENP, the SENP inhibition entry was “potent and selective SENP inhibition”.
For the molecule `CC1CC2=C(O1)c1ccccc1C(=O)C2=O` (stereo not shown) [33-DINOR-dunnione], the SUMOylation inhibition entry in the series on SUMOylation is “potent SUMOylation inhibitors”.
On to `CNC(=O)c1cc(COC(=O)c2ccc3c(c2)c(COc2ccc4[nH]ccc4c2)cn3S(C)(=O)=O)cc(=O)[nH]1` [Compound 52], for which the SENP inhibition result in the series with SENP is “potent and selective SENP inhibition”.
Take `COc1cc(NC(=O)Nc2nc(-c3nc4ccccc4s3)cs2)cc(OC)c1OC` [thiazole urea]: the SUMOylation inhibition result in the series on SUMOylation was “potent molecules capable of inhibiting SUMOylation in vitro”.
Turning to `CCc1cc(=O)[nH]c(-n2nc(-c3ccccc3)cc2NC(=O)Nc2ccc(C(C)(C)C)cc2)n1` [Pyrazole urea], the SUMOylation inhibition entry with SUMOylation is recorded as “potent molecules capable of inhibiting SUMOylation in vitro”.
Turning to `O=C(/C=C/C1C(OC(=O)c2ccc(-c3ccccc3)cc2)CC2OC(=O)CC21)Oc1cccc(Cl)c1` (stereo not shown) [SI2], in the series on SENP, the SENP inhibition result is “potent and selective SENP inhibition”.
Regarding `O=C(Nc1cccc(NC(=O)c2ccc(-c3cc(Cl)ccc3Cl)o2)c1)c1ccccc1` [Compound 50], the SENP inhibition result in the series with SENP was “potent and selective SENP inhibition”.
Regarding `O=CCN1C(=O)C(NC(=O)c2cccc(NC(=O)OCc3ccccc3)c2)N=C(c2ccccc2)c2ccccc21` (stereo not shown) [Compound 39], the SENP inhibition result with SENP was “potent and selective SENP inhibition”.
Regarding `CC(C)C[C@H](NC(=O)Cc1ccc(O)c([N+](=O)[O-])c1)C(=O)N[C@@H](CCCNC(=N)N)C(=O)NCC(=O)NCC(=O)COC(=O)c1c2ccccc2cc2ccccc12` [VAE-561], in the series with SENP, the SENP inhibition result was “more potent and selective SENP inhibitors”.
Regarding `C=CC[C@@H](Nc1ccccc1)C12C=CC(O1)C(C(=O)OC)=C2C(=O)OC` (stereo partly shown) [CID9549553], in series [1], the “SAE / SUMO E1 inhibition” value was “covalently targets an allosteric binding pocket of SUMO E1”.
In the case of `COc1ccc(-c2nnc(Nc3nc4c(OC)cccc4s3)o2)cc1` [Compound N106], in series [1], the SUMO-E1 activation result is given as “capable of increasing SUMOylation through the activation of SUMO-E1”.
In the case of `CC(O)[C@H](NC(=O)[C@H](CCC(N)=O)NC(=O)[C@H](CCC(N)=O)NC(=O)Cc1ccc(O)c([N+](=O)[O-])c1)C(=O)NCC(=O)NCC(=O)COC(=O)c1c2ccccc2cc2ccccc12` (stereo partly shown) [VAE-500] (X1-QQ[Thr(3ξ)]G-X2), the SENP inhibition result with SENP was “more potent and selective SENP inhibitors”.
With `O=C(Oc1cc(C(=O)O[C@H]2O[C@@H](OC(=O)c3cc(O)c(O)c(OC(=O)c4cc(O)c(O)c(O)c4)c3)[C@H](OC(=O)c3cc(O)c(O)c(OC(=O)c4cc(O)c(O)c(O)c4)c3)[C@@H](OC(=O)c3cc(O)c(O)c(OC(=O)c4cc(O)c(O)c(O)c4)c3)[C@@H]2OC(=O)c2cc(O)c(O)c(OC(=O)c3cc(O)c(O)c(O)c3)c2)cc(O)c1O)c1cc(O)c(O)c(O)c1` [Davidiin], the SUMOylation inhibition result with SUMOylation is listed as “one of the most potent natural product SUMOylation inhibitors identified”. Also, the “formation of the E1-SUMO complex” value in series [1] was “blocks the formation of the E1-SUMO complex”.
For the molecule `O=C(NCc1cccc(CNC(=O)c2sc3cc(F)ccc3c2Cl)c1)c1sc2cc(F)ccc2c1Cl` [Compound 49], in the series on SENP, the SENP inhibition result was “potent and selective SENP inhibition”.
